Assay results as given in PMC5267519, “Evaluation of a Novel Renewable Hepatic Cell Model for Prediction of Clinical CYP3A4 Induction Using a Correlation-Based Relative Induction Score Approach” (Drug Metabolism and Disposition, 2017).
Where “and” joins values, the source holds several entries; their conditions need not be identical. Equal entries are not always repeated. Where two headings read alike, the source gives them in different places.

What was measured:
CYP1A2 [1] = assay: CYP1A2 induction response to prototypical inducer, enzyme activity, HepatoCells; details: human, probe phenacetin 100 µM
Experimental: (§1) Cryopreserved HepatoCells were thawed quickly in a 37°C water bath and transferred to Corning Culture Medium for HepatoCells supplemented with 10% fetal bovine serum and Pen/Strep (plating medium). After the cryo-freezing media was removed by centrifugation at 150g for 10 minutes, the cell pellet was resuspended in plating media and cell count was performed with trypan blue. Cells were then seeded in a Corning BioCoat Collagen I–coated plate (500,000 cells/well in 24-well plate or 80,000 cells/well in 96-well plate), and plates were incubated in a 37°C incubator with 5% CO2. […] Cells were then returned to the incubator for overnight culture.

CYP3A4 [2] = details: for RIS Based on Enzyme Activity: RIS = (Emax × Cmax,ub)/(EC50 + Cmax,ub); for RIS values based on enzyme activity (range stated for group of compounds): range over named compounds and three lots
CYP1A2 [3] = assay: CYP1A2 induction response to prototypical inducer, enzyme activity, primary human hepatocytes; details: cryopreserved primary human hepatocytes, probe phenacetin 100 µM
CYP3A4 [4] = details: cited from earlier work
CYP3A4 [5] = details: for Predicted AUC change using HepatoCells (range of lots): three lots, mRNA or activity basis not given
Excerpt: The resulting fitting equation was used to calculate predicted in vivo AUC change for each compound. […] Prediction accuracy using HepatoCells was also compared with prediction accuracy using primary human hepatocytes.

CYP3A4 mRNA [6] = assay: Concentration-dependent CYP3A4 mRNA induction in HepatoCells; details: for Emax / EC50: CYP3A4 mRNA fold increase, NI = no induction observed at tested concentration; for Emax: 3 consecutive days treatment, quinidine: only observed maximum fold induction; for RIS Based on mRNA: RIS = (Emax × Cmax,ub)/(EC50 + Cmax,ub); for EC50: human, nominal concentrations; for RIS Based on mRNA, Mean: mean of lots 2B, 3A, 3B; for RIS values based on CYP3A4 mRNA level (range stated for group of compounds): range over named compounds and three lots
Experimental: as §1
(§2) Stock solutions of test compounds were prepared by dissolving each compound in DMSO and serially diluting the solutions in DMSO. Final working solutions were freshly prepared daily by diluting the 1000× stock solutions in culture medium. Three lots of HepatoCells culture were treated with eight concentrations of test compounds. Both enzymatic activity (testosterone 6β hydroxylase activity) and mRNA expression were measured as endpoints using LC-MS/MS and real-time reverse-transcription polymerase chain reaction, respectively.

[7] = Solubility at test concentrations in induction assay; assay type: physicochemical; details: at 33 μM and 100 μM
Experimental: Only curve fitting with correlation coefficient (R^2) > 0.85 is accepted. At high concentrations for some compounds, if toxicity or insolubility becomes obvious, such data are excluded from curve fitting. Following the same approach as described by [Zhang et al. (2014)] and [Fahmi and Ripp (2010)], for data sets that show no apparent plateau, the observed maximum fold increase is accepted as Emax to avoid extrapolating too much above the experimental values and EC50 is calculated accordingly from the fitting curve.

CYP3A4 mRNA [8] = tested on: CYP3A4 mRNA
Experimental: as §1, §2

[9] = clinical DDI, decrease in AUC of victim drug (midazolam or nonmidazolam), ref Zhang et al., 2014
[10] = Lot 2B HepatoCells, RIS calibration curve
[11] = Lot 3A HepatoCells, RIS calibration curve
[12] = Lot 3B HepatoCells, RIS calibration curve

RIS Based on Enzyme Activity (CYP3A4 [2]; Lot 2B)	RIS Based on Enzyme Activity (CYP3A4 [2]; Lot 3A)	RIS Based on Enzyme Activity (CYP3A4 [2]; Lot 3B)	RIS Based on Enzyme Activity, Mean (CYP3A4 [2]; mean of lots 2B, 3A, 3B)	Predicted % AUC Change Based on Activity (CYP3A4 [5]; [10]) [%]	Predicted % AUC Change Based on mRNA (CYP3A4 [5]; [10]) [%]	Predicted % AUC Change Based on Activity (CYP3A4 [5]; [11]) [%]	Predicted % AUC Change Based on mRNA (CYP3A4 [5]; [11]) [%]	Predicted % AUC Change Based on Activity (CYP3A4 [5]; [12]) [%]	Emax (CYP3A4 mRNA [6]; Lot 2B HepatoCells) [Fold]	RIS Based on mRNA (CYP3A4 mRNA [6]; Lot 2B)	Emax (CYP3A4 mRNA [6]; Lot 3A HepatoCells) [Fold]	RIS Based on mRNA (CYP3A4 mRNA [6]; Lot 3A)	Emax (CYP3A4 mRNA [6]; Lot 3B HepatoCells) [Fold]	RIS Based on mRNA (CYP3A4 mRNA [6]; Lot 3B)	EC50 (CYP3A4 mRNA [6]; EC50, Lot 2B HepatoCells) [µM]	EC50 (CYP3A4 mRNA [6]; EC50, Lot 3A HepatoCells) [µM]	EC50 (CYP3A4 mRNA [6]; EC50, Lot 3B HepatoCells) [µM]	RIS Based on mRNA, Mean (CYP3A4 mRNA [6])	Structure (SMILES)	Observed % AUC Change (CYP3A4 [4]; [9]) [%]	other results
0.12	0.20	0.28	0.2	17	36	23	35	34	33	0.28	31	0.37	15	0.21	3.3	2.3	2	0.29	CCc1ccc(CCOc2ccc(CC3SC(=O)NC3=O)cc2)nc1 (stereo not shown) [Pioglitazone]	26	solubility [7]: insoluble; Predicted % AUC Change Based on mRNA (CYP3A4 [5]; [12]): 29%; Predicted AUC change using enzyme activity data (range of lots) (CYP3A4 [5]; three lots of HepatoCells): 17–34%; Predicted AUC change using mRNA data (range of lots) (CYP3A4 [5]; three lots of HepatoCells): 29–36%
1.5	1.4	1.2	1.3						31	1.2	53	1.8	38	1.1	23	28	32	1.4	O=C1C(CC[S+]([O-])c2ccccc2)C(=O)N(c2ccccc2)N1c1ccccc1 (stereo not shown) [Sulfinpyrazone]		

Further lines, the compound ahead of its results:

Structure (SMILES)	RIS Based on Enzyme Activity (CYP3A4 [2]; Lot 2B)	RIS Based on Enzyme Activity (CYP3A4 [2]; Lot 3A)	RIS Based on Enzyme Activity (CYP3A4 [2]; Lot 3B)	RIS Based on Enzyme Activity, Mean (CYP3A4 [2]; mean of lots 2B, 3A, 3B)	Predicted % AUC Change Based on Activity (CYP3A4 [5]; [10]) [%]	Predicted % AUC Change Based on mRNA (CYP3A4 [5]; [10]) [%]	Predicted % AUC Change Based on Activity (CYP3A4 [5]; [11]) [%]	Predicted % AUC Change Based on mRNA (CYP3A4 [5]; [11]) [%]	Predicted % AUC Change Based on Activity (CYP3A4 [5]; [12]) [%]	Emax (CYP3A4 mRNA [6]; Lot 2B HepatoCells) [Fold]	RIS Based on mRNA (CYP3A4 mRNA [6]; Lot 2B)	Emax (CYP3A4 mRNA [6]; Lot 3A HepatoCells) [Fold]	RIS Based on mRNA (CYP3A4 mRNA [6]; Lot 3A)	Emax (CYP3A4 mRNA [6]; Lot 3B HepatoCells) [Fold]	RIS Based on mRNA (CYP3A4 mRNA [6]; Lot 3B)	EC50 (CYP3A4 mRNA [6]; EC50, Lot 2B HepatoCells) [µM]	EC50 (CYP3A4 mRNA [6]; EC50, Lot 3A HepatoCells) [µM]	EC50 (CYP3A4 mRNA [6]; EC50, Lot 3B HepatoCells) [µM]	RIS Based on mRNA, Mean (CYP3A4 mRNA [6])	Observed % AUC Change (CYP3A4 [4]; [9]) [%]	other results
COc1ccc2[nH]c([S+]([O-])Cc3ncc(C)c(OC)c3C)nc2c1 (stereo not shown) [Omeprazole]	0.015	0.009	0.007	0.0103	0.11	1.7	0.002	0.14	0.017	24	0.069	45	0.073	27	0.079	13	23	13	0.074	−25	fold induction at 72 h, 50 µM (CYP1A2 [1]): 32.4; RIS values based on enzyme activity (range stated for group of compounds) (CYP3A4 [2]): 0.0004–0.09; fold induction at 72 h, 50 µM (CYP1A2 [3]): 28.7; Predicted % AUC Change Based on mRNA (CYP3A4 [5]; [12]): 0.35%; Predicted AUC change using HepatoCells (range of lots) (CYP3A4 [5]): 0.1–1.7%; RIS values based on CYP3A4 mRNA level (range stated for group of compounds) (CYP3A4 mRNA [6]): 0.0012–0.16
O=C1NC(=O)C(c2ccccc2)(c2ccccc2)N1 [Phenytoin]	1.8	2.3	2.4	2.2	96	98	96	98	97	23	7.5	38	12.1	35	8.5	15	16	23	9.4	94	RIS values based on enzyme activity (range stated for group of compounds) (CYP3A4 [2]): 0.7–24; Predicted % AUC Change Based on mRNA (CYP3A4 [5]; [12]): 95%; Predicted AUC change using HepatoCells (range of lots) (CYP3A4 [5]): 95–98%; RIS values based on CYP3A4 mRNA level (range stated for group of compounds) (CYP3A4 mRNA [6]): 0.8–25
C=C[C@H]1C[N@@]2CC[C@H]1C[C@@H]2[C@@H](O)c1ccnc2ccc(OC)cc12 [Quinidine]																					CYP3A4 mRNA induction over solvent vehicle control (CYP3A4 mRNA [8]): one- to twofold increase; CYP3A4 enzyme activity induction over solvent vehicle control (CYP3A4 [2]): one- to twofold increase; CYP3A4 enzyme activity induction response (in words) (CYP3A4 [2]): did not cause a concentration-dependent increase
CN(C/C=C/C#CC(C)(C)C)Cc1cccc2ccccc12 [Terbinafine]										20		24		21							RIS Based on mRNA, Mean (CYP3A4 mRNA [8]; human): 0.19; RIS Based on Enzyme Activity, Mean (CYP3A4 [2]; human): 0.2; Observed % AUC Change (CYP3A4 [4]; human, in vivo): 25%; Predicted % AUC Change Based on Activity (CYP3A4 [5]): 29% and 15%; Predicted AUC change using enzyme activity data (range of lots) (CYP3A4 [5]): 15–29%; Predicted AUC change using mRNA data (range of lots) (CYP3A4 [5]): 8–19%
